ChEMBL document CHEMBL1201862, “PubChem BioAssay data set” (2004)
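Results reflect a 48-hour exposure of cells in 96-well plates to compound at five concentrations. The concentration for 50% growth inhibition is given as GI50.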 The source made the active and inactive calls. Cut-off read from the data, not from the text of the source: active = GI50 up to about 1.1 µM and inactive = higher.

Columns and labels:
Assay in all cases: NCI tumour cell line growth inhibition, 48 h
U-251 = tested on: U-251
COLO 205 = tested on: COLO 205
SK-OV-3 = tested on: SK-OV-3
HCC 2998 = tested on: HCC 2998
HCT-116 = tested on: HCT-116
ACHN = tested on: ACHN
786-0 = tested on: 786-0
MCF7 = tested on: MCF7
SK-MEL-2 = tested on: SK-MEL-2
Hs-578T = tested on: Hs-578T
M14 = tested on: M14
NCI/ADR-RES = tested on: NCI/ADR-RES
SK-MEL-5 = tested on: SK-MEL-5
SN12C = tested on: SN12C
HOP-92 = tested on: HOP-92
MDA-MB-435 = tested on: MDA-MB-435
Malme-3M = tested on: Malme-3M
UO-31 = tested on: UO-31
A549 = tested on: A549
NCI-H522 = tested on: NCI-H522
RPMI-8226 = tested on: RPMI-8226
DU-145 = tested on: DU-145
SF-268 = tested on: SF-268
SF-539 = tested on: SF-539
IGROV-1 = tested on: IGROV-1
UACC-257 = tested on: UACC-257
NCI-H23 = tested on: NCI-H23
CCRF-CEM = tested on: CCRF-CEM
UACC-62 = tested on: UACC-62
K562 = tested on: K562
SNB-19 = tested on: SNB-19
HT-29 = tested on: HT-29
SR = tested on: SR
SK-MEL-28 = tested on: SK-MEL-28
SW-620 = tested on: SW-620
TK-10 = tested on: TK-10
OVCAR-4 = tested on: OVCAR-4
PC-3 = tested on: PC-3
A498 = tested on: A498
MDA-N = tested on: MDA-N
T47D = tested on: T47D
NCI-H226 = tested on: NCI-H226
MOLT-4 = tested on: MOLT-4
SF-295 = tested on: SF-295
HL-60 = tested on: HL-60
OVCAR-3 = tested on: OVCAR-3
OVCAR-8 = tested on: OVCAR-8
EKVX = tested on: EKVX
BT-549 = tested on: BT-549
OVCAR-5 = tested on: OVCAR-5
HCT-15 = tested on: HCT-15
CAKI-1 = tested on: CAKI-1
KM12 = tested on: KM12
SNB-75 = tested on: SNB-75
HOP-62 = tested on: HOP-62
RXF 393 = tested on: RXF 393
NCI-H460 = tested on: NCI-H460
LOX IMVI = tested on: LOX IMVI
MDA-MB-231 = tested on: MDA-MB-231

C[C@@]1(CCCCCCCCCCc2ccccc2)C[C@@]2(C)OC(=O)C[C@H]2OO1
GI50 (U-251): 1550 nM (inactive)
GI50 (COLO 205): 1700 nM (inactive)
GI50 (SK-OV-3): 2480 nM (inactive)
GI50 (HCC 2998): 1660 nM (inactive)
GI50 (HCT-116): 1450 nM (inactive)
GI50 (ACHN): 2200 nM (inactive)
GI50 (786-0): 1510 nM (inactive)
GI50 (MCF7): 1560 nM (inactive)
GI50 (SK-MEL-2): 20900 nM (inactive)
GI50 (Hs-578T): 2470 nM (inactive)
GI50 (M14): 1510 nM (inactive)
GI50 (NCI/ADR-RES): 1680 nM (inactive)
GI50 (SK-MEL-5): 1440 nM (inactive)
GI50 (SN12C): 1810 nM (inactive)
GI50 (HOP-92): 769 nM (active)
GI50 (MDA-MB-435): 1810 nM (inactive)
GI50 (Malme-3M): 1540 nM (inactive)
GI50 (UO-31): 1890 nM (inactive)
GI50 (A549): 2760 nM (inactive)
GI50 (NCI-H522): 1720 nM (inactive)
GI50 (RPMI-8226): 1850 nM (inactive)
GI50 (DU-145): 2770 nM (inactive)
GI50 (SF-268): 1800 nM (inactive)
GI50 (SF-539): 1570 nM (inactive)
GI50 (IGROV-1): 1750 nM (inactive)
GI50 (UACC-257): 2120 nM (inactive)
GI50 (NCI-H23): 1550 nM (inactive)
GI50 (CCRF-CEM): 1550 nM (inactive)
GI50 (UACC-62): 1800 nM (inactive)
GI50 (K562): 1680 nM (inactive)
GI50 (SNB-19): 2260 nM (inactive)
GI50 (HT-29): 1460 nM (inactive)
GI50 (SR): 1880 nM (inactive)
GI50 (SK-MEL-28): 2070 nM (inactive)
GI50 (SW-620): 1680 nM (inactive)
GI50 (TK-10): 2830 nM (inactive)
GI50 (OVCAR-4): 2170 nM (inactive)
GI50 (PC-3): 1770 nM (inactive)
GI50 (A498): 19700 nM (inactive)
GI50 (MDA-N): 1990 nM (inactive)
GI50 (T47D): 2490 nM (inactive)
GI50 (NCI-H226): 3100 nM (inactive)
GI50 (MOLT-4): 1690 nM (inactive)
GI50 (SF-295): 1820 nM (inactive)
GI50 (HL-60): 399 nM (active)
GI50 (OVCAR-3): 1790 nM (inactive)
GI50 (OVCAR-8): 1430 nM (inactive)
GI50 (EKVX): 2520 nM (inactive)
GI50 (BT-549): 479 nM (active)
GI50 (OVCAR-5): 1760 nM (inactive)
GI50 (HCT-15): 1730 nM
GI50 (CAKI-1): 30300 nM (inactive)
GI50 (KM12): 1810 nM (inactive)
GI50 (SNB-75): 2810 nM (inactive)
GI50 (HOP-62): 1570 nM (inactive)
GI50 (RXF 393): 1930 nM (inactive)
GI50 (NCI-H460): 1960 nM (inactive)
GI50 (LOX IMVI): 2050 nM (inactive)
GI50 (MDA-MB-231): 1670 nM (inactive)
